{"source": "patent US8617563B2", "about": "“Antichlamydial agents” (Duke University, priority 2011, dated 2013)", "key": {"[1]": {"tested_on": "C. muridarum", "assay": "C. muridarum growth in HeLa cells (recovered IFUs)", "format": "cell-based", "settings": "infected HeLa cells, recovered IFUs", "description": "Cells were infected with an MOI of 1 and treated with CPAF inhibitor (SEQ ID NO:7) or control (SEQ ID NO:11) peptides at 12 hpi, fixed at 24 hpi and analyzed by IF with anti-L2 polyclonal antisera. Inclusion size was determined by measuring the inclusion diameter in μm by confocal microscopy of 50 infected cells. The number of cells with fragmented inclusions was determined by counting the number of infected cells out of 50 with more than one inclusion. (C) Sequence alignment and % sequence identify of full length CPAF and predicted inhibitory peptide sequence between C. trachomatis serovar LGV-L2, Chlamydia muridarum, and Chlamydophila caviae was determined using Geneious software (available at the Geneious website). […] GPIC or C. muridarum infected whole cell protein lysate was preincubated with SEQ ID NO:7 peptide or SEQ ID NO:11 control peptide, mixed with GST-IncC at 37° C., resolved by SDS-PAGE and stained with Coomassie blue. […] Inhibition of C. muridarum (E) and C. ceviae (F) growth was determined by counting the number of recovered IFUs. […] Inclusions were detected by IF with anti-LGV-L2 (A, B, E) antisera or anti-chlamydial LPS (F) monoclonal antibodies, and host nuclei sere detected by staining."}, "[2]": {"biological_target": "CPAF (Chlamydia trachomatis serovar D, UniProt O84866)", "sequence (O84866 1-234, added parts left off)": "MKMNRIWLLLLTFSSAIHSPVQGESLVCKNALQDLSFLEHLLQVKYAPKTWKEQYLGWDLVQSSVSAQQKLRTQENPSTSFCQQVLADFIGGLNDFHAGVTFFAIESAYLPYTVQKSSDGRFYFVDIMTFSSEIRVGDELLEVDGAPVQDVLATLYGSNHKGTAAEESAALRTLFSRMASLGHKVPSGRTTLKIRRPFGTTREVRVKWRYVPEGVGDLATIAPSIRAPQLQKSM", "sequence (O84866 276-601)": "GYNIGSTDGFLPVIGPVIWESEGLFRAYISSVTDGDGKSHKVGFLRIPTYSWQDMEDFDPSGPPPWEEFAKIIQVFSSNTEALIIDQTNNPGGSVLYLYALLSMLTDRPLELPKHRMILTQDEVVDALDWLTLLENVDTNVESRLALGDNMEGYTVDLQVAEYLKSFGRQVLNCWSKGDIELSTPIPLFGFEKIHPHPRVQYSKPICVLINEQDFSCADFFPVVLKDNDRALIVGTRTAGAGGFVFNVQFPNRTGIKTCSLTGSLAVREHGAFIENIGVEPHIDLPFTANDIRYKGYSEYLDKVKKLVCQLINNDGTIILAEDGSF", "format": "biochemical, C. trachomatis", "parameters": "6xHis; made in house; host or cells: E. coli (pET30b)", "settings": "GST-chlamydial substrates in presence of peptides", "description": "FIG. 4 depicts (A) Recombinant Chlamydia ORFs were tested for sensitivity to host and bacterial derived proteases. […] Purified his-tagged CPAF was incubated with GST-tagged chlamydial substrates at 37° C. for 20 min with increasing amounts of lactacystin. Cleavage products were run on an SDS PAGE gel and visualized with Coomassie blue staining. (C) Schematic summary of CPAF targets. […] Membranes from Chlamydia-infected HeLa cells were harvested and purified at 0, 24, 36 and 48 hours post-infection, and the abundance of the chlamydial proteins Ct005, IncC and IncD were monitored with specific antibodies. Na/K ATPase and IncG served as host and bacterial-loading controls, respectively.\nCytosols from Chlamydia-infected HeLa cells (40 hrs) or recombinant his-tagged CPAF were pre-treated with rabbit polyclonal anti-CPAF or anti-IncA antisera, and incubated with GST-tagged Chlamydia proteins for 20 min at 37° C. […] Three example proteins shown include a type-III secretion (T3S) core component (CdsQ) a T3S chaperone (Mcsc) and a T3S needle component (Ct584). Processing of recombinant proteins in A-B were monitored by immunoblot analysis with specific antibodies. (C) Protease inhibitor profile of recombinant CPAF. Example shown for the chlamydial substrate GST-IncC. Degradation products were visualized by SDS-PAGE followed by staining with Coomassie blue. […]\nUninfected and HeLa cells pre-infected with L2 for 30 hrs were treated with inhibitory peptides and infected with EBs for 10 min Tarp translocation was indirectly visualized with an anti-phosphotyrosine antibody (A) and quantified by counting 50 separate cells (B). The stability of newly translocated Tarp was assessed by infecting cells as in (A) but with S^35-labeled EBs, followed by sequential immunoprecipitation of Tarp and MOMP and Phosphoimager analysis of precipitated material (C (I-IV)). […] IC50 values were determined by assessing CPAF cleavage of an Abz-tagged CPAF substrate (SEQ ID NO:9) by HPLC. […] Extracellular bacteria were determined. […] The number of internalized EBs was quantified per cell (H). […]"}}, "note": "“Also recorded” adds a separate entry of the source. Where no end group is shown, it is not given here."}
{"substance": "SLFYSPMVPHFWAELRNHYATSGLKRRRRRRRRR-NH2 [SEQ ID NO:7]", "values": [{"measurement": "C. muridarum replication", "setting": "[1]", "result": "blocked C. muridarum replication; also recorded: impairs growth in C. muridarum"}, {"measurement": "Inhibition of degradation of CPAF substrates in vitro", "setting": "[2]", "result": "broadly inhibited degradation of CPAF substrates"}]}
